Laboratory results as given in PMC5030359, “Cathelicidin Antimicrobial Peptides with Reduced Activation of Toll-Like Receptor Signaling Have Potent Bactericidal Activity against Colistin-Resistant Bacteria” (mBio, 2016).
In brackets after ≈: the same amount, converted by molar mass. Several values for one entry are separate records, joined by “and”; a condition that tells them apart may be missing. Equal values may be shown once. Read-outs that look alike come from different tables or passages of the source. Peptide text beside a SMILES is read from it.

Tests used:
TLR3 = TLR3 signaling: IL-6 ELISA in BEAS-2B cells treated with poly(I·C); assay type: cell-based, human; details: for % IL-6 produced compared to controls (SD) TLR3: poly(I·C) […], peptide 2 µM, ELISA, control cells = 100%, mean (SD) of minimum three assays
Description: (§1) Eight cathelicidins produced by eight mammals were selected for an initial examination (Fig. 1A). […] However, the number of charged residues and the lengths of the disordered residues differed (Fig. 1B). The peptides were added to BEAS-2B cells, a human lung epithelial cell line that expresses multiple TLRs and can release proinflammatory cytokines in response to their activation and the enhancement of cytokine release by LL-37 ([15]). BEAS-2B cells treated with the TLR3 agonist poly(I⋅C) and 2 µM LL-37 increased interleukin 6 (IL-6) production by threefold. All of the nonhuman cathelicidins tested had lower TLR3 signaling compared to LL-37 (Fig. 1B). The lack of TLR3 signaling by the nonhuman cathelicidins was due to the inability to use the formyl peptide receptor-like receptor 1 to endocytose the double-stranded RNA (dsRNA)−LL-37 complex and deliver the poly(I⋅C) to TLR3 in endosomes ([17]) (see Fig. S1 in the supplemental material). All of the nonhuman cathelicidins also had reduced activation of TLR9 compared to LL-37 (Fig. 1B).
(§2) FIG 1 Cathelicidins from animals have distinct abilities to act on Toll-like receptor signaling. (A) A phylogenetic relationship of cathelicidins from mammals. The figure is derived from results of Zanetti et al. (12). (B) Names, lengths, and sequences of cathelicidin peptides and their ability to affect Toll-like receptor signaling. The peptide lengths are shown in the numbers of amino acids (AAs). The residues predicted to form an α-helix are underlined with an arrow. The basic, acidic, and aromatic residues are colored blue, red, and green, respectively. TLR signaling was assessed by the amount of IL-6 cytokine produced in BEAS-2B cells. IL-6 levels were quantified using enzyme-linked immunosorbent assay (ELISA), and the level of IL-6 in the control cells is normalized to 100%. The peptides were added to the cells at a final concentration of 2 μM. Each result is the mean of a minimum of three independent assays, and the standard deviations (SD) are shown in parentheses.
(§3) The concentration of IL-6 secreted into the cell medium was quantified using the OptEIA kit (BD Biosciences, San Jose, CA). A typical assay used 1 × 10^4 BEAS-2B cells/well grown for 24 h in flat-bottom 96-well plates. Poly(I⋅C) was added to a final concentration of 0.13 µg/ml for 24 h. ODN2006 was added to 0.5 nM. Lipopolysaccharides were used at 0.5 µg/ml. All data shown are the means and ranges of 1 standard error for a minimum of three independent samples. Data sets were compared using the Student t test calculated with GraphPad Prism 5 software.

TLR9 = TLR9 signaling: IL-6 ELISA in BEAS-2B cells treated with CpG DNA ODN2006; assay type: cell-based, human; details: ODN2006 0.5 nM, peptide 2 µM, control cells = 100%, mean (SD) of minimum three assays
Description: as §1, §2, §3

TLR4 = TLR4 signaling: IL-6 ELISA in BEAS-2B cells treated with LPS; assay type: cell-based, human; details: for % IL-6 produced compared to controls (SD) TLR4: BEAS-2B cells, LPS 0.5 µg/ml, peptide 2 µM, ELISA, control cells = 100%, mean (SD) of minimum three assays
Text: as §2
LL-37 at 2 µM final concentration reduced IL-6 production to approximately half that of the untreated cells (Fig. 1B).
as §3

E. cloacae 4080 = assay: Bacterial killing, colony formation (CFU); assay type: cell-based, Enterobacter cloacae; details: 25 µg/ml kanamycin sulfate, E. cloacae 4080
Description: The number of CFU of E. cloacae 4080 were quantified as a function of time of incubation with a 2 µM concentration of the individual peptides. In the reactions with kanamycin (Kan), 25 µg/ml of kanamycin sulfate was used. […] The initial inoculum was 10^6 CFU in LB.

[1] = strains with MIC of 16 µg/ml or less / strains tested
[2] = broth microdilution, CAMHB, at least three independent assays

Description for 19 Gram-negative strains: (A) Sequences of the cathelicidins, the numbers of bacterial strains killed, and hRBC lysis by the cathelicidins. […] The bacterial species tested are Klebsiella pneumoniae (K. p.), Serratia marcescens (S. m.), Enterobacter cloacae (E. cl.), Escherichia coli (E. c.), and Pseudomonas aeruginosa (P. a.). MICs were determined by the microdilution assay. […] The results are the median values of at least three independent assays.
We tested a panel of cathelicidins for inhibiting growth of 19 Gram-negative strains from the family Enterobacteriaceae and the nonfermentative bacteria. The species tested were Enterobacter cloacae ([2]), Escherichia coli ([5]), Klebsiella pneumoniae ([4]), Pseudomonas aeruginosa ([4]), and Serratia marcescens ([4]). All of the strains selected have been characterized for their antibiotic resistance profiles.
(§4) Antimicrobial activity was determined using the broth microdilution method based on the guidelines of the Clinical and Laboratory Standards Institute (CLSI) ([39]), using cation-adjusted Mueller-Hinton broth (CAMHB) as the testing medium. Reference Gram-positive and Gram-negative bacteria were tested, including both enteric and Pseudomonas aeruginosa strains. Each MIC was determined in at least three independent assays.
Description for E. faecalis: as §4
Description for Enterobacter cloacae: (§5) The bacterial species tested are Klebsiella pneumoniae (K. p.), Serratia marcescens (S. m.), Enterobacter cloacae (E. cl.), Escherichia coli (E. c.), and Pseudomonas aeruginosa (P. a.). MICs were determined by the microdilution assay. […] The results are the median values of at least three independent assays.
as §4
Description for Escherichia coli: as §5, §4
Description for Klebsiella pneumoniae: as §5, §4
Description for Pseudomonas aeruginosa: as §5, §4
Description for S. aureus: as §4
Description for Serratia marcescens: as §5, §4

Compound: CC[C@H](C)[C@H](NC(=O)[C@@H](NC(=O)[C@@H]1CCCN1C(=O)[C@H](CO)NC(=O)[C@H](CC(C)C)NC(=O)[C@H](CCCCN)NC(=O)[C@H](CCCCN)NC(=O)[C@H](Cc1ccccc1)NC(=O)[C@H](CC(C)C)NC(=O)[C@H](CCCCN)NC(=O)[C@H](CCCCN)NC(=O)[C@H](Cc1ccccc1)NC(=O)[C@H](CCCCN)NC(=O)[C@H](CCCCN)NC(=O)[C@H](CCCNC(=N)N)NC(=O)[C@H](Cc1ccccc1)NC(=O)[C@H](CCCNC(=N)N)NC(=O)[C@H](CCCCN)NC(=O)[C@H](Cc1ccccc1)NC(=O)[C@H](CCCNC(=N)N)NC(=O)CN)C(C)C)C(=O)N1CCC[C@H]1C(=O)N[C@@H](CC(C)C)C(=O)N[C@@H](CC(C)C)C(=O)N[C@@H](Cc1c[nH]cn1)C(=O)N[C@@H](CC(C)C)C(=O)NCC(=O)O [BMAP-27] (H-GRFKRFRKKFKKLFKKLSPVIPLLHLG-OH; N-terminus and C-terminus assumed)
- # strains inhibited at 16 µg/ml peptide E. c. (Escherichia coli): 6/6
- # strains inhibited at 16 µg/ml peptide K. p. (Klebsiella pneumoniae; [1]): 4/4
- MIC E. faecalis 29212 (E. faecalis): >32 µg/mL
- MIC E. faecalis 51299 (E. faecalis): >32 µg/mL
- concentration usually required to inhibit growth of S. marcescens strains (Serratia marcescens; S. marcescens strains): 8 µg/mL
- # strains inhibited at 16 µg/ml peptide S. m. (Serratia marcescens; [1]): 3/3
- No. of strains inhibited at 16 µg/ml/total no. of strains (19 Gram-negative strains): 19 and 19/19
- No. of strains inhibited at 16 µg/ml/total no. of strains (19 Gram-negative strains; 19 Gram-negative strains, MIC of 16 µg/ml or less): ≥ 16
- # strains inhibited at 16 µg/ml peptide E. cl. (Enterobacter cloacae; [1]): 2/2
- # strains inhibited at 16 µg/ml peptide P. a. (Pseudomonas aeruginosa): 4/4
- MIC S. aureus 25923 (S. aureus): 16 µg/mL (≈ 4.87 µM)
- MIC S. aureus 29213 (S. aureus): 16 µg/mL (≈ 4.87 µM)

Compound: CC[C@H](C)[C@H](NC(=O)[C@H](CCCCN)NC(=O)[C@H](CCC(=O)O)NC(=O)[C@H](CCCCN)NC(=O)[C@H](CO)NC(=O)[C@H](CCCCN)NC(=O)[C@H](CCCNC(=N)N)NC(=O)[C@H](Cc1ccccc1)NC(=O)[C@H](Cc1ccccc1)NC(=O)[C@H](CC(=O)O)NC(=O)CNC(=O)[C@H](CC(C)C)NC(=O)[C@@H](N)CC(C)C)C(=O)NCC(=O)N[C@@H](CCCCN)C(=O)N[C@@H](CCC(=O)O)C(=O)N[C@@H](Cc1ccccc1)C(=O)N[C@@H](CCCCN)C(=O)N[C@@H](CCCNC(=N)N)C(=O)N[C@H](C(=O)N[C@H](C(=O)N[C@@H](CCC(N)=O)C(=O)N[C@@H](CCCNC(=N)N)C(=O)N[C@H](C(=O)N[C@@H](CCCCN)C(=O)N[C@@H](CC(=O)O)C(=O)N[C@@H](Cc1ccccc1)C(=O)N[C@@H](CC(C)C)C(=O)N[C@@H](CCCNC(=N)N)C(=O)N[C@@H](CC(N)=O)C(=O)N[C@@H](CC(C)C)C(=O)N[C@H](C(=O)N1CCC[C@H]1C(=O)N[C@@H](CCCNC(=N)N)C(=O)N[C@H](C(=O)N[C@@H](CCC(=O)O)C(=O)N[C@@H](CO)C(=O)O)[C@@H](C)O)C(C)C)[C@@H](C)CC)C(C)C)[C@@H](C)CC [LL-37]
- # strains inhibited at 16 µg/ml peptide E. c. (Escherichia coli): 0/6
- MIC E. coli ATCC 25922 (Escherichia coli; [2]): 32 µg/mL (≈ 7.12 µM)
- MIC E. coli ATCC 35218 (Escherichia coli; [2]): 32 µg/mL (≈ 7.12 µM)
- MIC E. coli IU0342 (Escherichia coli; [2]): 32 µg/mL (≈ 7.12 µM)
- MIC E. coli J53 AzideR (Escherichia coli; [2]): >32 µg/mL
- MIC E. coli MC4100 (Escherichia coli; [2]): >32 µg/mL
- # strains inhibited at 16 µg/ml peptide K. p. (Klebsiella pneumoniae): 0/4
- MIC K. pneumoniae 4110 (Klebsiella pneumoniae; [2]): >32 µg/mL
- MIC K. pneumoniae ATCC 700603 (Klebsiella pneumoniae; [2]): >32 µg/mL
- MIC K. pneumoniae C2 (Klebsiella pneumoniae; [2]): >32 µg/mL
- MIC K. pneumoniae OC8893 (Klebsiella pneumoniae; [2]): >32 µg/mL
- # strains inhibited at 16 µg/ml peptide S. m. (Serratia marcescens): 0/3
- MIC S. marcescens 4075 (Serratia marcescens; [2]): >32 µg/mL
- MIC S. marcescens 4101 (Serratia marcescens; [2]): >32 µg/mL
- MIC S. marcescens 4104 (Serratia marcescens; [2]): >32 µg/mL
- MIC S. marcescens 7553 (Serratia marcescens; [2]): >32 µg/mL
- No. of strains inhibited at 16 µg/ml/total no. of strains (19 Gram-negative strains): 0/19
- MIC for any/all of the 19 bacterial strains (19 Gram-negative strains; statement over all 19 Gram-negative strains): at least 32 µg/ml
- % IL-6 produced compared to controls (SD) TLR3 (TLR3): 389(16) %
- increase of IL-6 production (TLR3; poly(I·C), 2 µM peptide): threefold
- # strains inhibited at 16 µg/ml peptide E. cl. (Enterobacter cloacae): 0/2
- MIC E. cloacae 4080 (Enterobacter cloacae; [2]): 32 µg/mL (≈ 7.12 µM)
- MIC E. cloacae 4092 (Enterobacter cloacae; [2]): >32 µg/mL
- # strains inhibited at 16 µg/ml peptide P. a. (Pseudomonas aeruginosa): 0/4
- MIC P. aeruginosa 4083 (Pseudomonas aeruginosa; [2]): 32 µg/mL (≈ 7.12 µM)
- MIC P. aeruginosa ATCC 27853 (Pseudomonas aeruginosa; [2]): >32 µg/mL
- MIC P. aeruginosa PAO1 (Pseudomonas aeruginosa; [2]): 32 µg/mL (≈ 7.12 µM)
- MIC P. aeruginosa PAO1 ΔOprD (Pseudomonas aeruginosa; [2]): 32 µg/mL (≈ 7.12 µM)
- % IL-6 produced compared to controls (SD) TLR9 (TLR9): 175(15) %
- % IL-6 produced compared to controls (SD) TLR4 (TLR4): 55(3) %
- IL-6 production relative to untreated cells (TLR4; LPS-induced TLR4 signaling, 2 µM peptide): approximately half

Compound: CC[C@H](C)[C@H](NC(=O)[C@H](CCCCN)NC(=O)[C@H](CCC(=O)O)NC(=O)[C@H](CCCCN)NC(=O)[C@@H](NC(=O)[C@H](CCCCN)NC(=O)[C@H](CCCNC(=N)N)NC(=O)[C@H](Cc1ccccc1)NC(=O)[C@H](Cc1ccccc1)NC(=O)[C@H](CC(N)=O)NC(=O)CNC(=O)[C@H](CC(C)C)NC(=O)[C@@H](N)CCCNC(=N)N)C(C)C)C(=O)NCC(=O)NCC(=O)NCC(=O)N[C@@H](CC(C)C)C(=O)N[C@@H](CCCCN)C(=O)N[C@@H](CCCCN)C(=O)N[C@H](C(=O)NCC(=O)N[C@@H](CCC(N)=O)C(=O)N[C@@H](CCCCN)C(=O)N[C@H](C(=O)N[C@@H](CCCCN)C(=O)N[C@@H](CC(=O)O)C(=O)N[C@@H](Cc1ccccc1)C(=O)N[C@@H](CC(C)C)C(=O)NCC(=O)N[C@@H](CC(N)=O)C(=O)N[C@@H](CC(C)C)C(=O)N[C@H](C(=O)N1CCC[C@H]1C(=O)N[C@@H](CCCNC(=N)N)C(=O)N[C@H](C(=O)N[C@@H](C)C(=O)N[C@@H](CO)C(=O)O)[C@@H](C)O)C(C)C)[C@@H](C)CC)C(C)C [RL-37] (H-RLGNFFRKVKEKIGGGLKKVGQKIKDFLGNLVPRTAS-OH; N-terminus and C-terminus assumed)
- # strains inhibited at 16 µg/ml peptide E. c. (Escherichia coli): 2/6
- # strains inhibited at 16 µg/ml peptide K. p. (Klebsiella pneumoniae; [1]): 3/4
- # strains inhibited at 16 µg/ml peptide S. m. (Serratia marcescens; [1]): 0/3
- No. of strains inhibited at 16 µg/ml/total no. of strains (19 Gram-negative strains): 7/19
- % IL-6 produced compared to controls (SD) TLR3 (TLR3): 102(18) %
- # strains inhibited at 16 µg/ml peptide E. cl. (Enterobacter cloacae; [1]): 1/2
- # strains inhibited at 16 µg/ml peptide P. a. (Pseudomonas aeruginosa): 1/4
- % IL-6 produced compared to controls (SD) TLR9 (TLR9): 93(19) %
- % IL-6 produced compared to controls (SD) TLR4 (TLR4): 50(5) %

Compound: NC[C@H]1O[C@H](O[C@H]2[C@H](O)[C@@H](O[C@H]3O[C@H](CO)[C@@H](O)[C@H](N)[C@H]3O)[C@H](N)C[C@@H]2N)[C@H](O)[C@@H](O)[C@@H]1O [kanamycin]
- reduction of CFU over time (E. cloacae 4080): only after a 2-h incubation

Compound: CAP-18
- # strains inhibited at 16 µg/ml peptide E. c. (Escherichia coli): 3/6
- # strains inhibited at 16 µg/ml peptide K. p. (Klebsiella pneumoniae; [1]): 4/4
- # strains inhibited at 16 µg/ml peptide S. m. (Serratia marcescens; [1]): 0/3
- No. of strains inhibited at 16 µg/ml/total no. of strains (19 Gram-negative strains): 11/19
- % IL-6 produced compared to controls (SD) TLR3 (TLR3): 234(30) %
- # strains inhibited at 16 µg/ml peptide E. cl. (Enterobacter cloacae; [1]): 1/2
- # strains inhibited at 16 µg/ml peptide P. a. (Pseudomonas aeruginosa): 3/4
- % IL-6 produced compared to controls (SD) TLR9 (TLR9): 121(23) %
- % IL-6 produced compared to controls (SD) TLR4 (TLR4): 42(13) %
